Key:
[1] = system: conscious dogs; assay: Regadenoson-induced changes in hemodynamics (MAP, HR, LVSP, LV dP/dtMax) with and without caffeine in conscious dogs; type: in vivo, dog; details: for increase in peak HR from baseline: p<0.05 vs control
Experimental: (§1) Sixteen chronically instrumented male mongrel dogs weighing from 22-30 kg were used in the study. The animal protocol was approved by the Institutional Animal Care and Use Committee of New York Medical College and conforms to the Guide for the Care and Use of Laboratory Animal by the United States National Institutes of Health.
(§2) Dogs were sedated with acepromazine (0.3 mg/kg, IM) and anesthetized with pentobarbital sodium (25 mg/kg, IV). After intubation, dogs were artificially ventilated with room air. A thoracotomy was made in the fifth intercostal space using sterile techniques. A Tygon catheter (Cardiovascular Instruments, Wakefield, Mass.) was inserted into the descending thoracic aorta and another one was inserted into the left atrium. In 9 dogs, an ultrasound flow transducer (Transonic Systems, Ithaca, N.Y.) was placed around the left circumflex coronary artery. A solid-state pressure gauge (P6.5, Konisberg Instruments, Pasadena, Calif.) was placed into the left ventricle through the apex. The chest was closed in layers. The catheters and wires were tunneled subcutaneously and externalized through the skin at the back of the dog's neck. Dogs were allowed to recover from the surgery before experiments were performed, and were trained to lie on a table.
(§3) Phasic arterial pressure was measured by connecting the aortic catheter to a strain gauge transducer (P23 ID, LDS Test and Measurement, Valley View, Ohio). Left ventricular pressures were measured by the solid pressure gauge. CBF (mL/min) was measured from an ultrasound flow transducer using a Transonic flowmeter (T206, Transonic Systems, Ithaca, N.Y.). Two indices were used to describe the Regadenoson-induced coronary vasodilation: 1) the maximum increase in CBF and 2) the duration of the 2-fold increase in CBF (the period of time that CBF was elevated to a level ≧2-fold of baseline CBF). All pressure and flow data were acquired and analyzed using a Ponemah System (Version 3.30 or 4.20, LDS Test and Measurement, Valley View, Ohio). MAP and HR were calculated from phasic blood pressure, and LV dP/dtMax was calculated from the left ventricular systolic pressure.
(§4) On the day of an experiment, a dog was placed on a table, where it lay quietly during the experiment. A catheter was inserted into a peripheral vein in the leg and attached to an infusion line to administer drugs without disturbing the dog. The experiment was begun after MAP, HR and CBF were stable.
(§5) Regadenoson was supplied by CV Therapeutics, Inc. as a sterile stock solution (Lot#: 803604, 0.08 mg/mL), that was made using 15% Propylene Glycol (pH 7) and was diluted in normal saline before injection.
The statistical significance of a difference between the value of a parameter at baseline and at the indicated time point after drug administration was determined using a One-Way Repeated Measures ANOVA followed by Tukey's Test. […] Results with p<0.05 were considered to be significant. A computer-based software package (SigmaStat 2.03) was used for statistical analysis. All data are presented as Mean±SEM.

[2] = system: normal subjects; assay: Safety and tolerability of regadenoson with and without prior caffeine; type: in vivo, human
Experimental: (§6) 15O water was used as the radionuclide in the PET scans. There was a 1- to 14-day washout period between dosing days. Blood samples and measures of safety were collected until 120 minutes after study drug administration.
Safety measures included adverse events (AEs), serious adverse events, vital signs (HR and BP), ECG, concomitant medications, and a tolerability questionnaire. All available data from subjects who received the single dose of regadenoson were to be included in the statistical summaries.
ECG intervals and changes from baseline values in ECG intervals were to be presented, as were occurrences of rhythm or conduction abnormalities. Concomitant medication usage was to be summarized.
Tolerability questionnaire responses were to be analyzed using the Wilcoxen rank sum test (“How did you feel?” question) and the exact Cochran-Mantel-Haenszel test (Day 2—only question “How did this test compare to the first test?”).

[3] = Plasma regadenoson concentrations after IV injection in conscious dogs; details: effect of caffeine at 1, 2, 4 or 10 mg/kg
Experimental: Each dog received an IV injection of 5 μg/kg of Regadenoson. […] LVSP, LV dP/dtMax, MAP, HR and CBF were recorded continuously. Blood samples were taken from the left atrial catheter at 1, 3, 5, 15, 30, 45 and 60 min following injections of Regadenoson.

[4] = system: normal subjects; assay: Crossover PET study of regadenoson-induced myocardial blood flow (coronary flow reserve) with caffeine or placebo; type: in vivo, human
Experimental: as §6
Open-label study drug was supplied as sterile stock solution in single-use vials each containing 5 mL of regadenoson (0.08 mg/mL). Regadenoson, 400 μg, was administered as a rapid bolus, through an iv catheter over approximately 10 seconds, followed immediately by a 5 mL saline flush.
On each of 2 study days, subjects received a single dose of regadenoson, administered intravenously as a rapid (10-second) bolus of 5 mL, followed by a 5 mL saline flush. There was a 1- to 14-day washout period between doses.
The CVT tracking number for the placebo capsules was 1341 (Leg 2).
The primary efficacy measure was the log coronary flow reserve (CFR), which is the ratio of stress MBF after regadenoson dosing to the resting MBF.
The data were also to be analyzed using Wilcoxon's rank-sum test.

[5] = system: conscious dogs; assay: Regadenoson-induced coronary vasodilation (CBF) with and without caffeine in conscious dogs; type: in vivo, dog; details: for change of the maximum increase in CBF induced by Regadenoson vs control: p>0.05
Experimental: as §1, §2, §3, §4
In 4 dogs, two doses of Regadenoson (5 μg/kg, IV) were given 90 min apart (without blood sampling) to determine if there is tachyphylaxis of Regadenoson-induced coronary vasodilation.
as §5
The statistical significance of a difference between the value of a parameter at baseline and at the indicated time point after drug administration was determined using a One-Way Repeated Measures ANOVA followed by Tukey's Test. The statistical significance of a difference between responses to Regadenoson in the absence and presence of caffeine was determined using a Two-Way Repeated Measures ANOVA followed by Tukey's Test. Results with p<0.05 were considered to be significant. A computer-based software package (SigmaStat 2.03) was used for statistical analysis. All data are presented as Mean±SEM.

[6] = regadenoson 5 μg/kg IV in the presence of caffeine 1 mg/kg
[7] = regadenoson 5 μg/kg IV in the presence of caffeine 2 mg/kg
[8] = caffeine 200 mg po before regadenoson 400 μg IV
[9] = regadenoson 400 μg IV, caffeine 200 mg po
[10] = after regadenoson 400 μg IV dosing
[11] = regadenoson 400 μg IV, at any time, 25/43 subjects

Compound: Cn1c(=O)c2c(ncn2C)n(C)c1=O [Caffeine, caffeine]
- peak decrease in MAP from baseline ([1]; regadenoson 5 μg/kg IV in the presence of 4 mg/kg caffeine): 2±5%
- decrease in LVSP from control ([1]; regadenoson 5 μg/kg IV in the presence of 4 mg/kg of caffeine, p>0.05): 1±5%
- increase in MAP from baseline ([1]; regadenoson 5 μg/kg IV in the presence of 10 mg/cg caffeine, insignificant): 9±6%
- increase in LVSP from control ([1]; regadenoson 5 μg/kg IV in the presence of 10 mg/kg caffeine, significant): 11±7%
- decrease in LVSP from baseline [1, 6]: 9±3%
- peak decrease in MAP from baseline [1, 6]: 13±2%
- decrease in LVSP from baseline [1, 7]: 6±2%
- peak decrease in MAP from baseline [1, 7]: 13±1%
- increase in peak HR from baseline [1, 7]: 109±21%
- increase in peak HR from baseline ([1]; regadenoson 5 μg/kg IV in the presence of caffeine 4 mg/kg): 79±20%
- increase in peak HR from baseline ([1]; regadenoson 5 μg/kg IV in the presence of caffeine 10 mg/kg): 74±16%
- effect of caffeine on the severity of AEs [2, 8]: attenuated
- overall incidence of AEs between the placebo and caffeine groups [2, 8]: no difference
- effect of caffeine on the HR increase caused by regadenoson ([2]; caffeine 200 mg po before regadenoson 400 μg IV, p<0.001): attenuated
- tolerability questionnaire: feeling after the caffeine test vs after the placebo test ([2]; caffeine 200 mg po, regadenoson 400 μg IV, p<0.001): felt better
- tolerability questionnaire: comfort during the test ([2]; test with caffeine 200 mg po vs placebo, regadenoson 400 μg IV, p<0.001): felt more comfortable
- Pharmacokinetic profiles of Regadenoson [3]: not changed
- change in CFR with caffeine ([4]; caffeine 200 mg po vs placebo before regadenoson 400 μg IV): no change in CFR detected
- change in CFR (printed: not ≧20%) ([4]; caffeine 200 mg po vs placebo before regadenoson 400 μg IV, 95% confidence): < 20%
- exponentiated lower limit of the 90% confidence interval for log CFR (caffeine versus placebo difference) [4, 9]: 0.80
- exponentiated lower limit of the 95% confidence interval for log CFR (caffeine versus placebo difference) [4, 9]: 0.78
- exponentiated upper limit of the 90% confidence interval for log CFR (caffeine versus placebo difference) [4, 9]: 1.06
- exponentiated upper limit of the 95% confidence interval for log CFR (caffeine versus placebo difference) [4, 9]: 1.08
- Baseline values of CBF before and after caffeine treatment ([5]; 45 min after 1, 2, 4, and 10 mg/kg caffeine): not significantly different
- change of the maximum increase in CBF induced by Regadenoson vs control ([5]; regadenoson 5 μg/kg IV 45 min after caffeine 1 mg/kg IV): 2±3%
- change of the maximum increase in CBF induced by Regadenoson vs control ([5]; regadenoson 5 μg/kg IV 45 min after caffeine 2 mg/kg IV): −0.7±3%
- change of the maximum increase in CBF induced by Regadenoson vs control ([5]; regadenoson 5 μg/kg IV 45 min after caffeine 4 mg/kg IV): −16±5%
- change of the maximum increase in CBF induced by Regadenoson vs control ([5]; regadenoson 5 μg/kg IV 45 min after caffeine 10 mg/kg IV): −13±8%

Compound: CNC(=O)c1cnn(-c2nc(N)c3ncn([C@@H]4O[C@H](CO)[C@@H](O)[C@H]4O)c3n2)c1 [Regadenoson, (1-{9-[(4S,2R,3R,5R)-3,4-dihydroxy-5-(hydroxymethyl)oxolan-2-yl]-6-aminopurin-2-yl}pyrazol-4-yl)-N-methylcarboxamide]
- decrease in MAP (peak) from baseline ([1]; regadenoson 5 μg/kg IV in the absence of caffeine, baseline 102±2 mm Hg, n=9): 15±2%
- increase in HR (peak) from baseline ([1]; regadenoson 5 μg/kg IV without caffeine, baseline 80±4 beats/min, n=9): 114±14%
- decrease in LVSP (peak) from baseline ([1]; regadenoson 5 μg/kg IV without caffeine, baseline 139±5 mm Hg, n=8): 9±1%
- increase in LV dP/dtMax (peak) from baseline ([1]; regadenoson 5 μg/kg IV, baseline 3240±196 mm Hg/s): 65±7%
- QTc prolongation (>500 msec and change of >60 msec) by ECG analysis, not reported as AE [2, 10]: one subject
- first degree AV block by ECG analysis, not reported as AE [2, 10]: one subject
- subjects with sensation of heaviness ([2]; regadenoson 400 μg IV): 28%
- subjects with paraesthesia ([2]; regadenoson 400 μg IV, 8/43 subjects): 19%
- subjects with headache ([2]; regadenoson 400 μg IV, 12/43 subjects): 28%
- subjects with flushing ([2]; regadenoson 400 μg IV, 13/43 subjects): 30%
- subjects with palpitations ([2]; regadenoson 400 μg IV, 21/43 subjects): 49%
- subjects with dyspnoea ([2]; regadenoson 400 μg IV, 24/43 subjects): 56%
- subjects with AEs: ear and labyrinth disorders ([2]; regadenoson 400 μg IV, at any time, 1/43 subjects): 2%
- subjects with AEs: gastrointestinal disorders ([2]; regadenoson 400 μg IV, at any time, 2/43 subjects): 5%
- subjects with AEs: general disorders and administration site conditions ([2]; regadenoson 400 μg IV, at any time, 11/43 subjects): 26%
- subjects with AEs: musculoskeletal and connective tissue disorders ([2]; regadenoson 400 μg IV, at any time, 12/43 subjects): 28%
- subjects with AEs: vascular disorders ([2]; regadenoson 400 μg IV, at any time, 13/43 subjects): 30%
- subjects with AEs: nervous system disorders ([2]; regadenoson 400 μg IV, at any time, 18/43 subjects): 42%
- subjects with AEs: cardiac disorders [2, 11]: 58%
- subjects with AEs: respiratory, thoracic and mediastinal disorders [2, 11]: 58%

Source: patent US20090081120A1, “Methods and Compositions for Increasing Patient Tolerability During Myocardial Imaging Methods” (CV Therapeutics, Inc., priority 2006, published 2009)
